In patent publication US20070128217A1 (priority 2003, published 2007):

Tests used:
[1] = test system: antibodies in sera from SARS patients (sera 1a, 1b, 2, 6, 37, 62, London, SARS-yellow, SARS-green); type: binding, human; set-up: Binding of serum 6 to linear peptides of protein X1 of SARS-CoV Urbani / Binding of serum 37 to linear peptides of protein X1 of SARS-CoV Urbani / Binding of serum 6 to looped/cyclic peptide (PEPSCAN-ELISA) / Binding of serum 37 to looped/cyclic peptide (PEPSCAN-ELISA) / Binding of serum 37 to looped/cyclic peptides of protein X1 of SARS-CoV Urbani / Binding of serum 6 to linear peptides of protein X2 / Binding of serum 37 to linear peptides of protein X2 / Binding of serum 37 to looped/cyclic peptides of protein X2 of SARS-CoV Urbani / Binding of serum 6 to linear peptides of protein M of SARS-CoV Urbani / Binding of serum 37 to linear peptides of protein M of SARS-CoV Urbani / Binding of serum 6 to looped/cyclic peptides of protein M of SARS-CoV Urbani / Binding of serum 37 to looped/cyclic peptides of protein M of SARS-CoV Urbani / Binding of serum 6 to linear peptides of protein X3 of SARS-CoV Urbani / Binding of serum 37 to linear peptides of protein X3 of SARS-CoV Urbani / Binding of serum 37 to looped/cyclic peptides of protein X3 of SARS-CoV Urbani / Binding of serum 6 to linear peptides of protein X4 of SARS-CoV Urbani / Binding of serum 37 to linear peptides of protein X4 of SARS-CoV Urbani / Binding of serum 37 to looped/cyclic peptides of protein X4 of SARS-CoV Urbani / Binding of serum 6 to linear peptides of protein X5 of SARS-CoV Urbani / Binding of serum 37 to linear peptides of protein X5 of SARS-CoV Urbani / Binding of serum 37 to looped/cyclic peptides of protein X5 of SARS-CoV Urbani / Binding of serum 6 to linear peptides of protein N of SARS-CoV Urbani / Binding of serum 37 to linear peptides of protein N of SARS-CoV Urbani / Binding of serum 6 to linear peptide (PEPSCAN-ELISA) / Binding of serum 1a to looped/cyclic peptides of protein N of SARS-CoV Urbani / Binding of serum 1b to looped/cyclic peptides of protein N of SARS-CoV Urbani / Binding of serum 2 to looped/cyclic peptides of protein N of SARS-CoV Urbani / Binding of serum 6 to looped/cyclic peptides of protein N of SARS-CoV Urbani / Binding of serum 37 to looped/cyclic peptides of protein N of SARS-CoV Urbani / Binding of serum 62 to looped/cyclic peptides of protein N of SARS-CoV Urbani / Binding of serum London to looped/cyclic peptides of protein N of SARS-CoV Urbani / Binding of serum SARS-green to looped/cyclic peptides of protein N of SARS-CoV Urbani: unit not given here
[2] = test system: rabbit serum obtained by immunizing a rabbit with the SARS-CoV strain Frankfurt 1; type: binding; set-up: Binding of a rabbit serum to linear peptides / Binding of a rabbit serum to looped peptides / Rabbit serum linear peptides / Rabbit serum looped peptides / Binding of a rabbit serum to linear peptides of protein N of SARS-CoV Urbani (Rabbit serum linear peptides) / Binding of a rabbit serum to looped/cyclic peptides of protein N of SARS-CoV Urbani (Rabbit serum looped peptides): unit not given here
[3] = test system: control sera (pooled serum of ten healthy LUMC hospital workers; commercial negative donor pooled serum from the Dutch bloodbank); type: binding, human; set-up: Binding of Control serum LUMC to linear peptides / Binding of Control serum Blood-bank to linear peptides / Binding of Control serum LUMC to looped peptides / Binding of Control Serum Blood-Bank to Looped peptides / Binding of Control serum LUMC to linear peptides of the protein M of SARS-CoV Urbani / Binding of Control serum Blood-bank to linear peptides of the protein M of SARS-CoV Urbani / Binding of Control serum LUMC to looped peptides of the protein M of SARS-CoV Urbani / Binding of Control Serum Blood-Bank to Looped peptides of the protein M of SARS-CoV Urbani: unit not given here
[4] = test system: recombinant human anti-SARS-CoV antibody 03-018; type: binding; set-up: Binding of antibody 03-018 to linear peptides of the N protein of SARS-CoV Urbani / Binding of antibody 03-018 to looped/cyclic peptides of the N protein of SARS-CoV Urbani: unit not given here

Sequence: QAFGRRGPEQTQGNF
- Binding of serum 1a to linear peptide (PEPSCAN-ELISA) [1]: 0.3
- Binding of serum 1a to looped/cyclic peptides of protein N of SARS-CoV Urbani [1]: 0.3
- Binding of serum 1b to linear peptide (PEPSCAN-ELISA) [1]: 0.1
- Binding of serum 1b to looped/cyclic peptides of protein N of SARS-CoV Urbani [1]: 0.2
- Binding of serum 2 to linear peptide (PEPSCAN-ELISA) [1]: 0.2
- Binding of serum 2 to looped/cyclic peptides of protein N of SARS-CoV Urbani [1]: 0.3
- Binding of serum 6 to linear peptide (PEPSCAN-ELISA) [1]: 0.2
- Binding of serum 6 to looped/cyclic peptides of protein N of SARS-CoV Urbani [1]: 0.2
- Binding of serum 37 to linear peptide (PEPSCAN-ELISA) [1]: 0.6
- Binding of serum 37 to looped/cyclic peptides of protein N of SARS-CoV Urbani [1]: 0.3
- Binding of serum 62 to linear peptide (PEPSCAN-ELISA) [1]: 0.8
- Binding of serum 62 to looped/cyclic peptides of protein N of SARS-CoV Urbani [1]: 0.3
- Binding of serum London to linear peptide (PEPSCAN-ELISA) [1]: 0.7
- Binding of serum London to looped/cyclic peptides of protein N of SARS-CoV Urbani [1]: 0.3
- Binding of serum SARS-green to linear peptide (PEPSCAN-ELISA) [1]: 0.2
- Binding of serum SARS-green to looped/cyclic peptides of protein N of SARS-CoV Urbani [1]: 0.2
- Binding of serum SARS-yellow to linear peptide (PEPSCAN-ELISA) [1]: 0.4
- Binding of serum SARS-yellow to looped/cyclic peptides of protein N of SARS-CoV Urbani [1]: 0.2
- Binding of a rabbit serum to linear peptides of protein N of SARS-CoV Urbani (Rabbit serum linear peptides) [2]: 0.1
- Binding of a rabbit serum to looped/cyclic peptides of protein N of SARS-CoV Urbani (Rabbit serum looped peptides) [2]: 0.3
- Binding of Control Serum Blood-Bank to Looped peptides [3]: 0.4
- Binding of Control serum Blood-bank to linear peptides [3]: 0.9
- Binding of Control serum LUMC to linear peptides [3]: 0.7
- Binding of Control serum LUMC to looped peptides [3]: 0.4
- Binding of antibody 03-018 to linear peptides of the N protein of SARS-CoV Urbani [4]: 0.1
- Binding of antibody 03-018 to looped/cyclic peptides of the N protein of SARS-CoV Urbani [4]: 0.2

Sequence: QGVPINTNSGPDDQI
- Binding of serum 1a to linear peptides of protein N of SARS-CoV Urbani [1]: 0.3
- Binding of serum 1a to looped/cyclic peptides of protein N of SARS-CoV Urbani [1]: 0.5
- Binding of serum 1b to linear peptides of protein N of SARS-CoV Urbani [1]: 0.2
- Binding of serum 1b to looped/cyclic peptides of protein N of SARS-CoV Urbani [1]: 0.4
- Binding of serum 2 to linear peptides of protein N of SARS-CoV Urbani [1]: 0.2
- Binding of serum 2 to looped/cyclic peptides of protein N of SARS-CoV Urbani [1]: 0.6
- Binding of serum 6 to linear peptides of protein N of SARS-CoV Urbani [1]: 0.2
- Binding of serum 6 to looped/cyclic peptides of protein N of SARS-CoV Urbani [1]: 0.4
- Binding of serum 37 to linear peptides of protein N of SARS-CoV Urbani [1]: 0.9
- Binding of serum 37 to looped/cyclic peptides of protein N of SARS-CoV Urbani [1]: 0.6
- Binding of serum 62 to linear peptides of protein N of SARS-CoV Urbani [1]: 0.6
- Binding of serum 62 to looped/cyclic peptides of protein N of SARS-CoV Urbani [1]: 1.0
- Binding of serum London to linear peptides of protein N of SARS-CoV Urbani [1]: 0.5
- Binding of serum London to looped/cyclic peptides of protein N of SARS-CoV Urbani [1]: 0.6
- Binding of serum SARS-green to linear peptides of protein N of SARS-CoV Urbani [1]: 0.6
- Binding of serum SARS-green to looped/cyclic peptides of protein N of SARS-CoV Urbani [1]: 1.3
- Binding of serum SARS-yellow to linear peptides of protein N of SARS-CoV Urbani [1]: 0.6
- Binding of serum SARS-yellow to looped/cyclic peptides of protein N of SARS-CoV Urbani [1]: 1.7
- Binding of a rabbit serum to linear peptides of protein N of SARS-CoV Urbani (Rabbit serum linear peptides) [2]: 0.2
- Binding of a rabbit serum to looped/cyclic peptides of protein N of SARS-CoV Urbani (Rabbit serum looped peptides) [2]: 0.8
- Binding of Control Serum Blood-Bank to Looped peptides [3]: 1.1
- Binding of Control serum Blood-bank to linear peptides [3]: 0.6
- Binding of Control serum LUMC to linear peptides [3]: 0.6
- Binding of Control serum LUMC to looped peptides [3]: 0.8
- Binding of antibody 03-018 to linear peptides of the N protein of SARS-CoV Urbani [4]: 0.1
- Binding of antibody 03-018 to looped/cyclic peptides of the N protein of SARS-CoV Urbani [4]: 0.1

Sequence: QHGKEELRFPRGQGV
- Binding of serum 1a to linear peptides of protein N of SARS-CoV Urbani [1]: 0.2
- Binding of serum 1a to looped/cyclic peptides of protein N of SARS-CoV Urbani [1]: 0.4
- Binding of serum 1b to linear peptides of protein N of SARS-CoV Urbani [1]: 0.2
- Binding of serum 1b to looped/cyclic peptides of protein N of SARS-CoV Urbani [1]: 0.3
- Binding of serum 2 to linear peptides of protein N of SARS-CoV Urbani [1]: 0.3
- Binding of serum 2 to looped/cyclic peptides of protein N of SARS-CoV Urbani [1]: 0.5
- Binding of serum 6 to linear peptides of protein N of SARS-CoV Urbani [1]: 0.1
- Binding of serum 6 to looped/cyclic peptides of protein N of SARS-CoV Urbani [1]: 0.4
- Binding of serum 37 to linear peptides of protein N of SARS-CoV Urbani [1]: 0.7
- Binding of serum 37 to looped/cyclic peptides of protein N of SARS-CoV Urbani [1]: 0.6
- Binding of serum 62 to linear peptides of protein N of SARS-CoV Urbani [1]: 0.7
- Binding of serum 62 to looped/cyclic peptides of protein N of SARS-CoV Urbani [1]: 0.4
- Binding of serum London to linear peptides of protein N of SARS-CoV Urbani [1]: 0.5
- Binding of serum London to looped/cyclic peptides of protein N of SARS-CoV Urbani [1]: 0.6
- Binding of serum SARS-green to linear peptides of protein N of SARS-CoV Urbani [1]: 0.4
- Binding of serum SARS-green to looped/cyclic peptides of protein N of SARS-CoV Urbani [1]: 0.4
- Binding of serum SARS-yellow to linear peptides of protein N of SARS-CoV Urbani [1]: 0.6
- Binding of serum SARS-yellow to looped/cyclic peptides of protein N of SARS-CoV Urbani [1]: 0.7
- Binding of a rabbit serum to linear peptides of protein N of SARS-CoV Urbani (Rabbit serum linear peptides) [2]: 0.2
- Binding of a rabbit serum to looped/cyclic peptides of protein N of SARS-CoV Urbani (Rabbit serum looped peptides) [2]: 0.5
- Binding of Control Serum Blood-Bank to Looped peptides [3]: 0.7
- Binding of Control serum Blood-bank to linear peptides [3]: 0.8
- Binding of Control serum LUMC to linear peptides [3]: 0.7
- Binding of Control serum LUMC to looped peptides [3]: 0.7
- Binding of antibody 03-018 to linear peptides of the N protein of SARS-CoV Urbani [4]: 0.1
- Binding of antibody 03-018 to looped/cyclic peptides of the N protein of SARS-CoV Urbani [4]: 0.2
